Results: paper PMC3317675 (International Journal of Molecular Sciences, 2012)

What was measured:
mGAT1 [1] = target: T1, mGAT1 (Mus musculus, UniProt P31648); experiment: [3H]GABA uptake inhibition, stable CHO cells; assay type: cell-based; parameters: gene Slc6a1; full-length ORF in pcDNA3; no tag mentioned
mGAT2 [2] = target: T2, mGAT2 (Mus musculus, UniProt P31649); experiment: [3H]GABA uptake inhibition, stable CHO cells; assay type: cell-based; parameters: gene Slc6a13; RIKEN FANTOM cDNA in pcDNA3; no tag mentioned
T2 sequence (P31649 1-602): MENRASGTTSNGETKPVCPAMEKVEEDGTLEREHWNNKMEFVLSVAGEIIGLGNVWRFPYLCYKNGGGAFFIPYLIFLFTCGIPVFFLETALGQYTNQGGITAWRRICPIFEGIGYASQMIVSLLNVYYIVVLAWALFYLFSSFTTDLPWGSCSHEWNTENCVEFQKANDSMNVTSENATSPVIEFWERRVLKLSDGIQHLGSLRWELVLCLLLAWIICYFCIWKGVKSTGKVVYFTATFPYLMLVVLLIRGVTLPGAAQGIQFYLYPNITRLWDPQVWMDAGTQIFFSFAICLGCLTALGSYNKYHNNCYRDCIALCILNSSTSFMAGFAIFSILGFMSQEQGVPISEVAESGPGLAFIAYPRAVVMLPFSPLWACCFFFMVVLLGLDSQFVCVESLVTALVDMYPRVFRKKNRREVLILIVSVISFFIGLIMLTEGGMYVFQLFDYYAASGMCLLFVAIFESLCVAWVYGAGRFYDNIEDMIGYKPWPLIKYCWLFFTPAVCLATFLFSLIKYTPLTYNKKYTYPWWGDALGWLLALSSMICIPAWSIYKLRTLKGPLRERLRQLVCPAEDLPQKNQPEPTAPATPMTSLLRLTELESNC

mGAT3 [3] = target: T3, mGAT3 (Mus musculus, UniProt P31650); experiment: [3H]GABA uptake inhibition, stable CHO cells; assay type: cell-based; parameters: gene Slc6a11; RIKEN FANTOM cDNA in pcDNA3; no tag mentioned
T3 sequence (P31650 1-627): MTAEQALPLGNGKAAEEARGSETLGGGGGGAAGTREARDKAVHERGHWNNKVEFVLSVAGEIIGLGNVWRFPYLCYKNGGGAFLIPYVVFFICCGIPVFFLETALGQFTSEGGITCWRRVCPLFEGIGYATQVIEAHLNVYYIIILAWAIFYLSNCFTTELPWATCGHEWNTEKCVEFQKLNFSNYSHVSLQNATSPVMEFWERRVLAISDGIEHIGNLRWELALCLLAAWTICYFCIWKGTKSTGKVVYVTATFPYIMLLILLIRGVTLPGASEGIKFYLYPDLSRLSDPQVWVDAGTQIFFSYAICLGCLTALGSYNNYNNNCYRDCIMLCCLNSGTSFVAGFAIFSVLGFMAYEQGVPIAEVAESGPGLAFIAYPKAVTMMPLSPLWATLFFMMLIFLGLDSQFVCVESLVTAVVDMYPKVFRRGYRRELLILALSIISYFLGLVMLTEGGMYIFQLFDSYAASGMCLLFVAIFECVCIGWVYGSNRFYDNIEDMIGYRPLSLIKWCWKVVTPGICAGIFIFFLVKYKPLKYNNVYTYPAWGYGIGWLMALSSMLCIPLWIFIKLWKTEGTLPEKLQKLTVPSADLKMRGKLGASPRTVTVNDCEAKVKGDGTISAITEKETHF

mGAT1 [4] = target: T1, mGAT1; experiment: cell-based; parameters: gene Slc6a1
From the text: (§1) Those were designated CHO/mGAT1, CHO/mGAT2, CHO/mGAT3 and CHO/mBGT1. […] For uptake assays in cell lines stably expressing mouse GATs, CHO cells were transfected with cDNA using FuGENE6 transfection reagent according to the manufacturer’s directions, and subsequently cultured in the medium containing G418 to select positive clones.

mGAT2 [5] = target: T2, mGAT2; experiment: cell-based; parameters: gene Slc6a13
From the text: as §1

mGAT3 [6] = target: T3, mGAT3; experiment: cell-based; parameters: gene Slc6a11
From the text: as §1

rSERT = target: T4, rSERT (Rattus norvegicus, UniProt P31652); experiment: [3H]5-HT uptake inhibition, stable CHO cells; assay type: cell-based
T4 construct: gene Slc6a4; previously cloned cDNA; no tag mentioned
T4 sequence (P31652 whole entry): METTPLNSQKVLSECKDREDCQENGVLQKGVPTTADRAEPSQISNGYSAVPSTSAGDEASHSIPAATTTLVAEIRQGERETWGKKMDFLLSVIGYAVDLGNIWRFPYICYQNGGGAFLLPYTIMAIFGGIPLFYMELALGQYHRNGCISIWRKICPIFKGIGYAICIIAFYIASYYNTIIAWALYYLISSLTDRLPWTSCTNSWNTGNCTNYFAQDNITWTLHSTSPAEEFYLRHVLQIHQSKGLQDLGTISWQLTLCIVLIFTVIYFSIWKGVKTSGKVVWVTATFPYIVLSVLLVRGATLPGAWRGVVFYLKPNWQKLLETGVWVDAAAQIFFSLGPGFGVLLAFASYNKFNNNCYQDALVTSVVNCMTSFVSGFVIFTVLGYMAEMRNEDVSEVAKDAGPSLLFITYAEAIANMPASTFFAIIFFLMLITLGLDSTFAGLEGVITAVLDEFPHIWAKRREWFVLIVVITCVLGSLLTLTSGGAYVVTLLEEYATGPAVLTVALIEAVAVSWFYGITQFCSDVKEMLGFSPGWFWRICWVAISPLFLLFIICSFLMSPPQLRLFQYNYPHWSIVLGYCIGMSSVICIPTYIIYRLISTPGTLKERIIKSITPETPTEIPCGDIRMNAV

IC50 (mGAT1 [1]) [µM]	IC50 (mGAT2 [2]) [µM]	IC50 (mGAT3 [3]) [µM]	IC50 (mGAT1 [4]) [µM]	IC50 (mGAT2 [5]) [µM]	IC50 (mGAT3 [6]) [µM]	IC50 (rSERT) [µM]	SMILES
136 ± 21.9	87.1	74.1					CNCCC=C1c2ccccc2CCc2ccccc21 [Nortriptyline]
167 ± 22.1	77.2	113					CNCCCC1c2ccccc2C=Cc2ccccc21 [Protriptyline]
181 ± 72.9	85.6	64.6				5.89	CC(CN(C)C)CN1c2ccccc2CCc2ccccc21 (stereo not shown) [Trimipramine]
			> 300	25	18		NCCC(=O)O [β-Alanine]

The next lines start with the compound.

SMILES	IC50 (mGAT1 [1]) [µM]	IC50 (mGAT2 [2]) [µM]	IC50 (mGAT3 [3]) [µM]	IC50 (mGAT1 [4]) [µM]	IC50 (mGAT2 [5]) [µM]	IC50 (mGAT3 [6]) [µM]	IC50 (rSERT) [µM]
CN(C)CCC=C1c2ccccc2CCc2ccccc21 [Amitriptyline]	101 ± 11.7	45.8	61.5				
C[N+](C)(C)CC(=O)O [Betaine]				> 10000	> 10000	> 10000	
CNCCCN1c2ccccc2CCc2ccccc21 [Desipramine]	268 ± 36.7	123	80.3				
CN(C)CCCN1c2ccccc2CCc2ccccc21 [Imipramine]	223 ± 58.5	106	108				
